Experiments:
Prothrombin = Prothrombin (Homo sapiens, UniProt P00734); experiment: Tested in vitro for the selectivity against thrombin (IIa)
Coagulation factor X = Coagulation factor X (Homo sapiens, UniProt P00742); experiment: Tested in vitro for the inhibitory potency against Coagulation factor Xa
Serine protease 1 = Serine protease 1 (Homo sapiens, UniProt P07477); experiment: Tested in vitro for the selectivity against trypsin (Trp)
Serine protease 1, sequence (P07477 whole entry): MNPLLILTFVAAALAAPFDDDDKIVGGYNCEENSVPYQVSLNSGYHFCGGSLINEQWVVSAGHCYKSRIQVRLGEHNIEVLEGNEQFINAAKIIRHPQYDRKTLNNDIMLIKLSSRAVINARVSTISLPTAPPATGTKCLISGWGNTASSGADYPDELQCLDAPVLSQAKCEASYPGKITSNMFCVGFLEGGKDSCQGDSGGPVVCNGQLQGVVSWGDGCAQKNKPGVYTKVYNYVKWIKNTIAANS

Coagulation factor X, sequence (P00742 41-179 limits assumed): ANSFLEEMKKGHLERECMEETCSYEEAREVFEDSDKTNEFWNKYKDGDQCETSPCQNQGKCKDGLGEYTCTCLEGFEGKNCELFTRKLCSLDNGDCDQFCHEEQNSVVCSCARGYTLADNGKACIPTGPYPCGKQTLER
Coagulation factor X, sequence (P00742 235-488 limits assumed): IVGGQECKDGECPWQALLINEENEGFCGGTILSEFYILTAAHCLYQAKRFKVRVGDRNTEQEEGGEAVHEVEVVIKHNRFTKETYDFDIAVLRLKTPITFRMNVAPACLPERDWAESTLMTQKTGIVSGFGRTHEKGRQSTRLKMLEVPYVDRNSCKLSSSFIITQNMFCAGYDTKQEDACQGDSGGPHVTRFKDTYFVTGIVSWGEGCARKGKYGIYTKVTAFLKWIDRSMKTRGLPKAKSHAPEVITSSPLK

Structure (SMILES)	Ki (Prothrombin) [nM]	Ki (Coagulation factor X) [nM]	Ki (Serine protease 1) [nM]
CCc1nc2cc(OC3CCN(C(C)=N)CC3)ccc2n1Cc1cccc(-c2ccc(C(=N)N)cc2)c1	> 5000	260	690
CCc1nc2c(N(C)C)c(OC3CCN(C(C)=N)CC3)ccc2n1Cc1ccc2ccc(C(=N)N)cc2c1	> 5000	5	10
CC(=N)N1CCC(Oc2ccc3c(nc(C)n3Cc3ccc4ccc(C(=N)N)cc4c3)c2[N+](=O)[O-])CC1	> 5000		3
CCc1nc2c(N(CC(=O)O)CC(=O)O)c(OC3CCN(C(C)=N)CC3)ccc2n1Cc1ccc2ccc(C(=N)N)cc2c1	> 5000	50	15
CC(=N)N1CCC(Oc2ccc3c(nc(C(C)C)n3Cc3ccc4ccc(C(=N)N)cc4c3)c2[N+](=O)[O-])CC1	> 5000	0.2	3
CCc1nc2ccc(OC3CCN(C(C)=N)CC3)cc2n1Cc1ccc(-c2ccc(C(=N)N)cc2)cc1	22	180	91
CCc1nc2c(NC(C)=O)c(OC3CCN(C(C)=N)CC3)ccc2n1Cc1ccc2ccc(C(=N)N)cc2c1	> 5000	50	25

Second part, the compound after the results:

Ki (Prothrombin) [nM]	Ki (Coagulation factor X) [nM]	Ki (Serine protease 1) [nM]	Structure (SMILES)
1500	670	150	CCc1nc2cc(OC3CCN(C(C)=N)CC3)ccc2n1Cc1ccc(-c2ccc(C(=N)N)cc2)cc1
3600	150	430	CCc1nc2ccc(OC3CCN(C(C)=N)CC3)cc2n1Cc1cccc(-c2ccc(C(=N)N)cc2)c1
3500	8	24	CCc1nc2c(N)c(OC3CCN(C(C)=N)CC3)ccc2n1Cc1ccc2ccc(C(=N)N)cc2c1
2000		5	CCc1nc2cc(OC3CCN(C(C)=N)CC3)ccc2n1Cc1ccc2ccc(C(=N)N)cc2c1
770	2.2	73	CCc1nc2ccc(OC3CCN(C(C)=N)CC3)cc2n1Cc1ccc(-c2cccc(C(=N)N)c2)cc1
1120		67	CCc1nc2cc(OC3CCN(C(C)=N)CC3)ccc2n1Cc1cccc(-c2cccc(C(=N)N)c2)c1
3000	0.1	5	CCc1nc2c([N+](=O)[O-])c(OC3CCN(C(C)=N)CC3)ccc2n1Cc1ccc2ccc(C(=N)N)cc2c1
190	34	190	CCc1nc2ccc(OC3CCN(C(C)=N)CC3)cc2n1Cc1cccc(-c2cccc(C(=N)N)c2)c1
210	17	140	CCc1nc2cc(OC3CCN(C(C)=N)CC3)ccc2n1Cc1ccc(-c2cccc(C(=N)N)c2)cc1
